Legend:
Assay type in all cases: cell-based
[1] = test system: BAX; assay: ELISA assay for apoptotic marker BAX in MCF-7 cells; conditions: 4.26 μM, 48 h, control 43.6 pg/mL
Text: (§1) To further investigate the apoptotic pathway of compound 1 in both untreated and treated MCF-7 cells, we investigated the enzymatic assays for apoptotic markers BAX (EIA-4487, DRG International®, Springfield, NJ, USA) and caspase-9 (EIA-4860, DRG International®, USA) as proapoptotic genes and BCL2 (Cat. No. 99-0042, Zymed®, CA, USA) as the anti-apoptotic gene, following the manufacturer’s instructions.

[2] = test system: HCT-116 cells; assay: SRB cytotoxicity assay, HCT-116 cells; conditions: Homo sapiens, 48 h, read-out: IC50 against HCT-116 cells
Method: (§2) The cell lines used in this study were purchased from the National Cancer Institute, Cairo, Egypt and maintained in Dulbecco’s Modified Eagle Medium/F-12 (DMEM⁄F12, Sigma-Aldrich, USA), supplemented with 2 mM L-glutamine (Lonza, Belgium) and 10% fetal bovine serum (FBS, Sigma-Aldrich, MO, USA), 1% penicillin-streptomycin (Lonza, Belgium). All cells were cultured following routine tissue culture work, and treated with serial concentrations of the compounds for 48 h. Absorbance was subsequently measured (at 570 nm) using ELISA microplate reader (BIO-RAD, model iMark, Japan). The viability was calculated relative to a control and the IC50 values were determined using the non-linear regression curve fit, as previously reported in [44]
(§3) The cytotoxic activities of the isolated compounds against HepG2, VERO E6, MCF-7 and HCT-116 cells were tested using the sulforhodamine-B (SRB) assay and the results are represented in figure e and Table 2.

[3] = SRB cytotoxicity assay, HepG2 cells; conditions: human, read-out: In vitro cytotoxic effect IC50, HepG2
Method: as §2, §3

[4] = test system: MCF-7 cells; assay: SRB cytotoxicity assay, MCF-7 cells; conditions: Homo sapiens, MCF7, 48 h, read-out: IC50 against MCF-7 cells
Method: as §2, §3

[5] = test system: MCF-7 cells; assay: Annexin V/PI staining, flow cytometry (apoptosis); conditions: 48 h
Method: (§4) Apoptosis rate in cells was quantified using annexin V-FITC (BD Pharmingen, San Diego, CA, USA). MCF-7 cells were seeded into 6-well culture plates (3–5 × 10^5 cells/well) and incubated overnight. The cells were then treated with compound 1 for 48 h. Next, media supernatants and cells were collected and rinsed with ice-cold PBS. The next step was suspending the cells in 100 µL of annexin binding buffer solution 25 mM CaCl2, 1.4 M NaCl, and 0.1 M Hepes/NaOH, pH 7.4 and incubation with annexin V-FITC solution (1:100) and propidium iodide (PI) at a concentration of 10 µg/mL in the dark for 30 min. Stained cells were then acquired by a Cytoflex FACS machine. Data were analyzed using cytExpert software v.2.3.

[6] = SRB cytotoxicity assay, Vero normal cells; conditions: African green monkey, Vero E6 cells (normal cells), read-out: In vitro cytotoxic effect IC50, Vero
Method: as §2, §3

[7] = test system: Vero cells; assay: SRB cytotoxicity assay, Vero normal cells; conditions: 48 h, read-out: In vitro cytotoxic effect IC50, Vero
Method: as §2, §3

[8] = test system: MCF-7 cells; assay: DNA content flow cytometry cell cycle analysis; conditions: 4.26 μM, 48 h
Method: Cell cycle analysis is an important test that determines the percentages of the cell population that are in each cell phase.. In this studyMCF-7 cancer cells were treated with compound 1, and then subjected to DNA flow cytometry to determine the stage where cell proliferation was arrested in the cell cycle.
as §4

[9] = test system: BCL2; assay: ELISA assay for anti-apoptotic marker BCL2 in MCF-7 cells; conditions: 4.26 μM, 48 h, control 7.59 ng/mL
Text: as §1

[10] = test system: caspase-9; assay: ELISA assay for apoptotic marker caspase-9 in MCF-7 cells; conditions: 4.26 μM, 48 h, control 5.16 pg/mL
Text: as §1

Compound | IC50 [2] | IC50 at 48 h [3] | IC50 [4] | IC50 at 48 h [6] | other results
O=C1c2c(O)cc(O)cc2OC(c2ccc(O)cc2)C1Oc1ccc(C2Oc3cc(O)cc(O)c3C(=O)C2C2C(=O)c3c(O)cc(O)cc3OC2c2ccc(O)cc2)cc1 (centres unmarked) [Compound 1, 2-(4-((5,7-dihydroxy-2-(4-hydroxyphenyl)-4-oxochroman-3-yl)oxy)phenyl)-5,5′,7,7′-tetrahydroxy-2′-(4 hydroxyphenyl)-[3,3′-bichromane]-4,4′-dione] | 9.6 µM | 8.6 µM | 4.26 µM | > 50 µM | BAX level [1]: 362 pg/mL; apoptotic cell death increase ([5]; MCF-7 cells treated at IC50 = 4.26 μM, versus untreated control): 14.97 fold; Apoptosis Late ([5]; MCF-7 cells, 4.26 μM, control 0.23%): 22.52%; Apoptosis Early ([5]; MCF-7 cells, 4.26 μM, control 0.61%): 2.44%; Apoptosis Total (apoptosis ratio) ([5]; MCF-7 cells, 4.26 μM, control 2.71%): 40.57%; IC50 [7]: 56.6 µM; Pre-G1 cell population ([8]; control 2.71%): 40.57%; change in cell population in G0/G1, S or G2/M phase ([8]; versus control): no significant change; BCL2 level [9]: 2.85 ng/mL; caspase-9 level [10]: 21.14 pg/mL
O=C(O)c1ccc(O)cc1 [Compound 9, p-hydroxy benzoic acid] | – | 32.6 µM | – | 203 µM | –
COc1cccc2c1C(=O)c1c(O)c3c(c(O)c1C2=O)C[C@@](O)(C(=O)CO)C[C@@H]3O[C@H]1C[C@H](N)[C@H](O)[C@H](C)O1 [Doxo, Doxorubicin, reference compound] | – | 7.7 µM | – | 45.8 µM | –
COc1cc2cc(Oc3ccc4ccc(=O)oc4c3)c(=O)oc2cc1OC [Compound 2, daphnoretin methyl ether] | 101 µM | 12.3 µM | 66.1 µM | – | –
COc1cc2oc(=O)c(Oc3ccc4ccc(=O)oc4c3)cc2cc1O [Compound 3, rutamontine] | – | 29.8 µM | – | > 142 µM | –
COc1cc2cc(O)c(=O)oc2cc1Oc1ccc2ccc(=O)oc2c1 [Compound 4, neodaphnoretin] | – | 27.2 µM | – | 124 µM | –
COc1cc2cc(Oc3ccc4ccc(=O)oc4c3)c(=O)oc2cc1OC(C)=O [Compound 5, acetyldaphnoretin] | 24.4 µM | 9.4 µM | 46.4 µM | – | –
O=C(C=Cc1ccc(O)cc1)OCC1OC(Oc2c(-c3ccc(O)cc3)oc3cc(O)cc(O)c3c2=O)C(O)C(O)C1O (stereo not drawn) [Compound 8, trans-tiliroside] | – | 15.1 µM | – | 50.5 µM | –
O=c1ccc2ccc(Oc3cc4cc(O)c(O)cc4oc3=O)cc2o1 [Compound 6, edgeworthin] | – | 32.5 µM | – | > 148 µM | –
